# Experimental data as given in ChEMBL document CHEMBL2380302, “Synthesis of 3-O-propargylated betulinic acid and its 1,2,3-triazoles as potential apoptotic agents” (Eur J Med Chem, 2013).
# Legend:
# THP-1 [1] = assay: Cytotoxicity against human THP1 cells at 30 uM after 48 hrs by SRB assay; type: functional; details: THP-1, 48 h, read-out: GI
# HL-60 [2] = assay: Cytotoxicity against human HL60 cells at 30 uM after 48 hrs by SRB assay; type: functional; details: HL-60, 48 h, read-out: GI
# PC-3 [3] = assay: Cytotoxicity against human PC3 cells after 48 hrs by SRB assay; type: functional, cell-based; details: PC-3, 48 h
# MCF7 [4] = assay: Cytotoxicity against human MCF7 cells at 50 uM after 48 hrs by SRB assay; type: functional; details: MCF7, 48 h, read-out: GI
# PC-3 [5] = assay: Cytotoxicity against human PC3 cells at 10 uM after 48 hrs by SRB assay; type: functional; details: PC-3, 48 h, read-out: GI
# MCF7 [6] = assay: Cytotoxicity against human MCF7 cells at 30 uM after 48 hrs by SRB assay; type: functional; details: MCF7, 48 h, read-out: GI
# PC-3 [7] = assay: Cytotoxicity against human PC3 cells at 30 uM after 48 hrs by SRB assay; type: functional; details: PC-3, 48 h, read-out: GI
# HL-60 [8] = assay: Cytotoxicity against human HL60 cells at 10 uM after 48 hrs by SRB assay; type: functional; details: HL-60, 48 h, read-out: GI
# HL-60 [9] = assay: Cytotoxicity against human HL60 cells at 50 uM after 48 hrs by SRB assay; type: functional; details: HL-60, 48 h, read-out: GI
# MCF7 [10] = assay: Cytotoxicity against human MCF7 cells after 48 hrs by SRB assay; type: functional, cell-based; details: MCF7, 48 h
# SF-295 [11] = assay: Cytotoxicity against human SF295 cells at 30 uM after 48 hrs by SRB assay; type: functional; details: SF-295, 48 h, read-out: GI
# SF-295 [12] = assay: Cytotoxicity against human SF295 cells at 10 uM after 48 hrs by SRB assay; type: functional; details: SF-295, 48 h, read-out: GI
# THP-1 [13] = assay: Cytotoxicity against human THP1 cells after 48 hrs by SRB assay; type: functional, cell-based; details: THP-1, 48 h
# MCF7 [14] = assay: Cytotoxicity against human MCF7 cells at 10 uM after 48 hrs by SRB assay; type: functional; details: MCF7, 48 h, read-out: GI
# THP-1 [15] = assay: Cytotoxicity against human THP1 cells at 10 uM after 48 hrs by SRB assay; type: functional; details: THP-1, 48 h, read-out: GI
# DU-145 [16] = assay: Cytotoxicity against human DU145 cells after 48 hrs by SRB assay; type: functional, cell-based; details: DU-145, 48 h
# A549 [17] = assay: Cytotoxicity against human A549 cells at 30 uM after 48 hrs by SRB assay; type: functional; details: A549, 48 h, read-out: GI
# HCT-15 [18] = assay: Cytotoxicity against human HCT15 cells after 48 hrs by SRB assay; type: functional, cell-based; details: HCT-15, 48 h
# DU-145 [19] = assay: Cytotoxicity against human DU145 cells at 10 uM after 48 hrs by SRB assay; type: functional; details: DU-145, 48 h, read-out: GI
# THP-1 [20] = assay: Cytotoxicity against human THP1 cells at 50 uM after 48 hrs by SRB assay; type: functional; details: THP-1, 48 h, read-out: GI
# HCT-15 [21] = assay: Cytotoxicity against human HCT15 cells at 50 uM after 48 hrs by SRB assay; type: functional; details: HCT-15, 48 h, read-out: GI
# HEp-2 [22] = assay: Cytotoxicity against human Hep2 cells at 50 uM after 48 hrs by SRB assay; type: functional; details: HEp-2, 48 h, read-out: GI
# HEp-2 [23] = assay: Cytotoxicity against human Hep2 cells after 48 hrs by SRB assay; type: functional, cell-based; details: HEp-2, 48 h
# DU-145 [24] = assay: Cytotoxicity against human DU145 cells at 50 uM after 48 hrs by SRB assay; type: functional; details: DU-145, 48 h, read-out: GI
# A549 [25] = assay: Cytotoxicity against human A549 cells after 48 hrs by SRB assay; type: functional, cell-based; details: A549, 48 h
# HL-60 [26] = assay: Cytotoxicity against human HL60 cells after 48 hrs by SRB assay; type: functional, cell-based; details: HL-60, 48 h
# A549 [27] = assay: Cytotoxicity against human A549 cells at 50 uM after 48 hrs by SRB assay; type: functional; details: A549, 48 h, read-out: GI
# HEp-2 [28] = assay: Cytotoxicity against human Hep2 cells at 30 uM after 48 hrs by SRB assay; type: functional; details: HEp-2, 48 h, read-out: GI
# SF-295 [29] = assay: Cytotoxicity against human SF295 cells at 50 uM after 48 hrs by SRB assay; type: functional; details: SF-295, 48 h, read-out: GI
# HCT-15 [30] = assay: Cytotoxicity against human HCT15 cells at 10 uM after 48 hrs by SRB assay; type: functional; details: HCT-15, 48 h, read-out: GI
# HEp-2 [31] = assay: Cytotoxicity against human Hep2 cells at 10 uM after 48 hrs by SRB assay; type: functional; details: HEp-2, 48 h, read-out: GI
# PC-3 [32] = assay: Cytotoxicity against human PC3 cells at 50 uM after 48 hrs by SRB assay; type: functional; details: PC-3, 48 h, read-out: GI
# A549 [33] = assay: Cytotoxicity against human A549 cells at 10 uM after 48 hrs by SRB assay; type: functional; details: A549, 48 h, read-out: GI
# HCT-15 [34] = assay: Cytotoxicity against human HCT15 cells at 30 uM after 48 hrs by SRB assay; type: functional; details: HCT-15, 48 h, read-out: GI
# DU-145 [35] = assay: Cytotoxicity against human DU145 cells at 30 uM after 48 hrs by SRB assay; type: functional; details: DU-145, 48 h, read-out: GI
# SF-295 [36] = assay: Cytotoxicity against human SF295 cells after 48 hrs by SRB assay; type: functional, cell-based; details: SF-295, 48 h
Compound,inhibition of growth at 30 µM (THP-1 [1]) [%],inhibition of growth at 30 µM (HL-60 [2]) [%],IC50 (PC-3 [3]) [µM],inhibition of growth at 50 µM (MCF7 [4]) [%],inhibition of growth at 10 µM (PC-3 [5]) [%],inhibition of growth at 30 µM (MCF7 [6]) [%],inhibition of growth at 30 µM (PC-3 [7]) [%],inhibition of growth at 10 µM (HL-60 [8]) [%],inhibition of growth at 50 µM (HL-60 [9]) [%],IC50 (MCF7 [10]) [µM],inhibition of growth at 30 µM (SF-295 [11]) [%],inhibition of growth at 10 µM (SF-295 [12]) [%],IC50 (THP-1 [13]) [µM],inhibition of growth at 10 µM (MCF7 [14]) [%],inhibition of growth at 10 µM (THP-1 [15]) [%],IC50 (DU-145 [16]) [µM],inhibition of growth at 30 µM (A549 [17]) [%],IC50 (HCT-15 [18]) [µM],inhibition of growth at 10 µM (DU-145 [19]) [%],inhibition of growth at 50 µM (THP-1 [20]) [%],also measured
C=C(C)[C@@H]1CC[C@]2(C(=O)O)CC[C@]3(C)[C@H](CC[C@@H]4[C@@]5(C)CC[C@H](OCc6cn(-c7cccc(OC)c7)nn6)C(C)(C)[C@@H]5CC[C@]43C)[C@@H]12,41,45,> 50,75,4,59,10,20,60,12,48,15,47,46,17,> 50,38,26,17,54,inhibition of growth at 50 µM (HCT-15 [21]): 84%; inhibition of growth at 50 µM (HEp-2 [22]): 57%; IC50 (HEp-2 [23]): 29 µM; inhibition of growth at 50 µM (DU-145 [24]): 30%; IC50 (A549 [25]): > 50 µM; IC50 (HL-60 [26]): 37 µM; inhibition of growth at 50 µM (A549 [27]): 45%; inhibition of growth at 30 µM (HEp-2 [28]): 56%; inhibition of growth at 50 µM (SF-295 [29]): 55%; inhibition of growth at 10 µM (HCT-15 [30]): 23%; inhibition of growth at 10 µM (HEp-2 [31]): 30%; inhibition of growth at 50 µM (PC-3 [32]): 28%; inhibition of growth at 10 µM (A549 [33]): 34%; inhibition of growth at 30 µM (HCT-15 [34]): 53%; inhibition of growth at 30 µM (DU-145 [35]): 18%; IC50 (SF-295 [36]): 32 µM
C=C(C)[C@@H]1CC[C@]2(C(=O)O)CC[C@]3(C)[C@H](CC[C@@H]4[C@@]5(C)CC[C@H](OCc6cn(C7O[C@H](COC(C)=O)[C@@H](OC(C)=O)[C@H](OC(C)=O)[C@H]7OC(C)=O)nn6)C(C)(C)[C@@H]5CC[C@]43C)[C@@H]12 (stereo partly drawn),58,63,> 50,32,8,15,7,52,80,> 50,5,8,20,8,44,> 50,20,27,7,76,inhibition of growth at 50 µM (HCT-15 [21]): 62%; inhibition of growth at 50 µM (HEp-2 [22]): 44%; IC50 (HEp-2 [23]): > 50 µM; inhibition of growth at 50 µM (DU-145 [24]): 8%; IC50 (A549 [25]): > 50 µM; IC50 (HL-60 [26]): 8 µM; inhibition of growth at 50 µM (A549 [27]): 43%; inhibition of growth at 30 µM (HEp-2 [28]): 39%; inhibition of growth at 50 µM (SF-295 [29]): 5%; inhibition of growth at 10 µM (HCT-15 [30]): 39%; inhibition of growth at 10 µM (HEp-2 [31]): 24%; inhibition of growth at 50 µM (PC-3 [32]): 11%; inhibition of growth at 10 µM (A549 [33]): 5%; inhibition of growth at 30 µM (HCT-15 [34]): 54%; inhibition of growth at 30 µM (DU-145 [35]): 4%; IC50 (SF-295 [36]): > 50 µM
C=C(C)[C@@H]1CC[C@]2(C(=O)O)CC[C@]3(C)[C@H](CC[C@@H]4[C@@]5(C)CC[C@H](OCc6cn(-c7ccc(Cl)cc7)nn6)C(C)(C)[C@@H]5CC[C@]43C)[C@@H]12,69,74,43,80,22,63,40,61,96,15,20,5,10,42,50,34,59,13,28,94,inhibition of growth at 50 µM (HCT-15 [21]): 66%; inhibition of growth at 50 µM (HEp-2 [22]): 55%; IC50 (HEp-2 [23]): 44 µM; inhibition of growth at 50 µM (DU-145 [24]): 55%; IC50 (A549 [25]): 8 µM; IC50 (HL-60 [26]): 5.5 µM; inhibition of growth at 50 µM (A549 [27]): 83%; inhibition of growth at 30 µM (HEp-2 [28]): 43%; inhibition of growth at 50 µM (SF-295 [29]): 32%; inhibition of growth at 10 µM (HCT-15 [30]): 46%; inhibition of growth at 10 µM (HEp-2 [31]): 28%; inhibition of growth at 50 µM (PC-3 [32]): 53%; inhibition of growth at 10 µM (A549 [33]): 52%; inhibition of growth at 30 µM (HCT-15 [34]): 53%; inhibition of growth at 30 µM (DU-145 [35]): 43%; IC50 (SF-295 [36]): > 50 µM
